Experimental data published in PubChem BioAssay AID520 (NMMLSC, 2006).
The source made the active and inactive calls. No rule for the calls is given here.

Biological target: N-formyl peptide receptor 2 (Homo sapiens) (UniProt P25090)
Assay: concentration-dependent FPRL1 ligand displacement – cell-based, FPR counter-screen, fluorescent ligand, dose response (AID 520)
Conditions: FPRL1-expressing cells, fluorescent ligand binding inhibition; for Ki: measured here: FPRL1 binding Ki

Chain of N-formyl peptide receptor 2 (Homo sapiens) (P25090 whole entry, looked up): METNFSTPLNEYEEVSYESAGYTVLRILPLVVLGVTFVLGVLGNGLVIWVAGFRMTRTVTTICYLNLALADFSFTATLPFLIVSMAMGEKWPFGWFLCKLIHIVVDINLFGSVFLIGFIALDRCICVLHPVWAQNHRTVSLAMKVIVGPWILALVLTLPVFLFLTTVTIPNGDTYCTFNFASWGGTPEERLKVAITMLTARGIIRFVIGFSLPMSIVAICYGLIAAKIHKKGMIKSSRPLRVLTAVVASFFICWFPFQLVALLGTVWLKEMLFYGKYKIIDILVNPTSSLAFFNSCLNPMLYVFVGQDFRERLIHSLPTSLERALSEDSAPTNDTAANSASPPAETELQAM

| Compound | Ki | IC50 |
| --- | --- | --- |
| CCC(C)(C(=O)NC1CCCC1)N(CC1CCCO1)C(=O)c1ccc2c(c1)OCO2 (stereo not given) | > 40.3 µM |  |
| O=C(C1=C(O)C(=O)N(Cc2ccccc2)C1c1ccco1)c1ccco1 (stereo not given) | > 40.3 µM | > 66.7 µM (inactive) |
| CCOC(=O)Cc1cc(=O)n2[nH]c(C)c(-c3ccccc3)c2n1 | > 40.3 µM |  |
| Cc1ccccc1Nc1cc2ccccc2c(=O)[nH]1 | > 40.3 µM |  |
| O=C(NCc1cccnc1)C1c2ccccc2C(=O)N1C1CCCCCCC1 (stereo not given) | > 40.3 µM |  |
| Cc1ccc(/C(O)=C2/C(=O)C(=O)N(CCN3CCOCC3)C2c2cccnc2)cc1 (stereo not given) | > 40.3 µM | > 66.7 µM (inactive) |
| CC1Cc2cc(/C(O)=C3\C(=O)C(=O)N(CCN4CCOCC4)C3c3ccccc3F)ccc2O1 (stereo not given) | > 40.3 µM | > 66.7 µM (inactive) |
| CCCOc1ccc(C2C(C(=O)c3ccc(C)o3)=C(O)C(=O)N2CCCn2ccnc2)cc1 (stereo not given) | > 40.3 µM | > 66.7 µM (inactive) |
| Cc1nc2c(-c3ccc(F)cc3)c(C)nn2c(C)c1CCC(=O)NC(C)CCc1ccco1 (stereo not given) | > 40.3 µM |  |
| COc1ccc2c(=O)c(N3C(=O)c4ccccc4C3=O)c(C)oc2c1 | > 40.3 µM |  |
| O=C(Cn1cnc2c(cnn2-c2ccc(F)cc2)c1=O)OCc1ccccc1 | > 40.3 µM |  |
| Cc1ccc(C2/C(=C(/O)c3ccc(Br)cc3)C(=O)C(=O)N2Cc2ccco2)o1 (stereo not given) | > 40.3 µM | > 66.7 µM (inactive) |
| COc1cc(C2C(C(=O)c3ccco3)=C(O)C(=O)N2CCc2ccccc2)ccc1O (stereo not given) | > 40.3 µM | > 66.7 µM (inactive) |
| CCOC(=O)c1c(C)[nH]c(C=Nc2ccccc2)c1O | > 40.3 µM |  |
| O=C1N=c2ccccc2=C1c1sc(=S)n(CC2CCCO2)c1O (stereo not given) | > 40.3 µM | > 66.7 µM (inactive) |
| CC1CCN(c2nc(-c3ccccc3)c(C#N)c(=O)[nH]2)CC1 | > 40.3 µM |  |
| CCOC(=O)Nc1ccc(OC)cc1S(=O)(=O)N1CCCCC1 | > 40.3 µM |  |
| COCCCN1C(=O)C(=O)/C(=C(/O)c2ccccc2)C1c1ccc2c(c1)OCO2 (stereo not given) | > 40.3 µM | > 66.7 µM (inactive) |
| CCn1cc(C(=O)NC2CCC(C)CC2)c(=O)c2cc(S(=O)(=O)N3CCCCC3)ccc21 (stereo not given) | > 40.3 µM |  |
| O=C(NC1CCCC1)C1CC1c1ccccc1 (stereo not given) | > 40.3 µM |  |
| CNc1nn(-c2cccc(Cl)c2)nc1N | 11 µM |  |
| COc1ccc(C2/C(=C(/O)c3ccccc3)C(=O)C(=O)N2CC(C)O)c(OC)c1 (stereo not given) | > 40.3 µM | > 66.7 µM (inactive) |
| Cc1cccc(OCC(=O)Nc2cc(C)ccc2O)c1 | > 40.3 µM |  |
| O=C(C1=C(O)C(=O)N(CCc2ccccc2)C1c1cccnc1)c1ccco1 (stereo not given) | > 40.3 µM | > 66.7 µM (inactive) |

| Compound | Ki | IC50 |
| --- | --- | --- |
| COc1ccc(OC)c(C2C(C(=O)c3cccs3)=C(O)C(=O)N2c2cc(C)on2)c1 (stereo not given) | > 40.3 µM | > 66.7 µM (inactive) |
| Cc1sc(NC(=O)C2CCCCC2C(=O)O)c(C(N)=O)c1-c1ccc(C(C)(C)C)cc1 (stereo not given) | > 40.3 µM |  |
| CC1=C(C(=O)OC(C)C)[C@]2(C(=O)N(CC(N)=O)c3ccccc32)C(C#N)=C(N)O1 | > 40.3 µM | > 66.7 µM (inactive) |
| COc1cccc(C2C(C(=O)c3cc4ccccc4o3)=C(O)C(=O)N2c2cc(C)on2)c1OC (stereo not given) | > 40.3 µM | > 66.7 µM (inactive) |
| CCOc1ccccc1Oc1c(C)oc2cc(OC(=O)c3ccco3)ccc2c1=O | > 40.3 µM |  |
| COc1ccc2cnn(-c3ccccc3)c(=O)c2c1OC | > 40.3 µM |  |
| CCOC(=O)c1c(NC(=O)c2cc(C3CC3)on2)sc2c1CCCC2 | > 40.3 µM |  |
| COc1ccc(/C(O)=C2/C(=O)C(=O)N(CCN3CCOCC3)C2c2ccc(C)cc2)cc1 (stereo not given) | > 40.3 µM | > 66.7 µM (inactive) |
| C=CCOc1ccc(C2C(C(=O)c3ccco3)=C(O)C(=O)N2Cc2cccnc2)cc1 (stereo not given) | > 40.3 µM | > 66.7 µM (inactive) |
| COc1cc(C2C(C(=O)c3ccc(C)o3)=C(O)C(=O)N2Cc2cccnc2)ccc1O (stereo not given) | > 40.3 µM | > 66.7 µM (inactive) |
| COc1ccc(-c2nc(-c3ccc(Br)o3)no2)cc1OC | > 40.3 µM |  |
| COCCN1C(=O)C(O)=C(C(=O)c2ccco2)C1c1cccc(Oc2ccccc2)c1 (stereo not given) | > 40.3 µM | > 66.7 µM (inactive) |
| CCN(C(=O)Cc1c(C(=O)O)[nH]c2ccccc12)c1cc(OC)ccc1OC | > 40.3 µM |  |
| Cc1ccc(C2C(C(=O)c3sc(C)nc3C)=C(O)C(=O)N2CCN2CCOCC2)o1 (stereo not given) | > 40.3 µM | > 66.7 µM (inactive) |
| CCOc1ccc(C2C(C(=O)c3cccs3)=C(O)C(=O)N2CCCn2ccnc2)cc1 (stereo not given) | > 40.3 µM | > 66.7 µM (inactive) |
| Cc1nn(-c2nc3ccccc3s2)c(C)c1Oc1ccccc1O | > 40.3 µM |  |
| CCCCNC(=O)c1sc(=S)n2c1[nH]c(=O)c1ccccc12 | > 40.3 µM |  |
| COCCN1Cc2cccc(C(=O)NCc3ccc4c(c3)OCO4)c2C1=O | > 40.3 µM |  |
| Nc1ccc(Nc2ccccc2)cc1 | > 40.3 µM |  |
| COc1cccc(C2/C(=C(\O)c3ccc(OC)c(OC)c3)C(=O)C(=O)N2c2cc(C)on2)c1 (stereo not given) | > 40.3 µM | > 66.7 µM (inactive) |
| Cc1ccc(Nc2ccc(C(=O)O)cc2N)cc1 | > 40.3 µM |  |
| Cc1ccc(/C(O)=C2\C(=O)C(=O)N(CC(C)O)C2c2ccc(N(C)C)cc2)cc1 (stereo not given) | > 40.3 µM | > 66.7 µM (inactive) |
| Cc1ccc(C2/C(=C(/O)c3cnn(-c4ccccc4)c3C)C(=O)C(=O)N2CCN2CCOCC2)o1 (stereo not given) | > 40.3 µM | > 66.7 µM (inactive) |
| CCCc1nc2ccccc2c2nc(N)nn12 | > 40.3 µM |  |

| Compound | Ki | IC50 |
| --- | --- | --- |
| C=CCOc1cccc(C2C(C(=O)c3ccco3)=C(O)C(=O)N2CCN2CCOCC2)c1 (stereo not given) | > 40.3 µM | > 66.7 µM (inactive) |
| COc1ccc(NC(=O)C2C3CCC(C3)C2C(=O)O)cc1OC (stereo not given) | > 40.3 µM |  |
| CCc1c(C)nc2c(C#N)c(C)[nH]n2c1=O | > 40.3 µM |  |
| CN(C)c1nc(N(C)C)nc(N(C)C)n1 | > 40.3 µM |  |
| Cc1cc(NC(=O)CSc2nnc(Cn3c(=O)sc4ccccc43)n2-c2ccccc2C)no1 | > 40.3 µM |  |
| CSc1ccccc1NS(=O)(=O)c1ccccc1 | > 40.3 µM |  |
| O=C1C(CCS(=O)c2ccccc2)C(=O)N(c2ccccc2)N1c1ccccc1 (stereo not given) | > 40.3 µM | > 66.7 µM (inactive) |
| CN1C(=O)/C(=C2\SC(=S)N(C(CCC(=O)O)C(=O)O)C2=O)c2ccccc21 (stereo not given) | > 40.3 µM |  |
| O=C(C1=C(O)C(=O)N(Cc2ccccc2)C1c1cccnc1)c1ccco1 (stereo not given) | > 40.3 µM | > 66.7 µM (inactive) |
| CCOC(=O)CSc1nnc(CNC(=O)c2cc(OCC)c(OCC)c(OCC)c2)n1C | 6.7 µM |  |
| COc1ccccc1C1/C(=C(/O)c2ccccc2)C(=O)C(=O)N1CC(C)O (stereo not given) | > 40.3 µM | > 66.7 µM (inactive) |
| COC(=O)c1[nH]c(C)c(/C(O)=C2\C(=O)C(=O)N(CCN3CCOCC3)C2c2cccnc2)c1C (stereo not given) | > 40.3 µM | > 66.7 µM (inactive) |
| COC(=O)[C@H](C(C)C)n1c(C)c(C(C)=O)c(C(C)=O)c1C | > 40.3 µM |  |
| COCCCN1C(=O)C(O)=C(C(=O)c2ccco2)C1c1ccccc1 (stereo not given) | > 40.3 µM | > 66.7 µM (inactive) |
| COc1ccc(-c2c(C)oc3c(CN4CCN(CCO)CC4)c(O)ccc3c2=O)cc1OC | > 40.3 µM |  |
| O=c1c2c(nc3c(-c4ccc(Cl)cc4)c[nH]n13)CCCC2 | > 40.3 µM |  |
| CCc1cc2c(=O)c(-c3nc4ccccc4n3C)c(COCC(=O)O)oc2cc1OC(=O)C(C)(C)C | > 40.3 µM |  |
| Cc1nc2c(C#N)c(C)[nH]n2c(=O)c1Cc1ccccc1 | > 40.3 µM |  |
| CCCNC(=S)Nc1ccc(Nc2ccccc2)cc1 | > 40.3 µM |  |
| CSCCC1C(C#N)=C(N)Oc2n[nH]c(-c3cccs3)c21 (stereo not given) | > 40.3 µM | > 66.7 µM (inactive) |
| COc1cc(C2C(C(=O)c3ccco3)=C(O)C(=O)N2c2cc(C)on2)cc(Br)c1O (stereo not given) | > 40.3 µM | > 66.7 µM (inactive) |
| COCCCN1C(=O)C(O)=C(C(=O)c2ccco2)C1c1ccc(Br)cc1 (stereo not given) | > 40.3 µM | > 66.7 µM (inactive) |
| N#Cc1c(C(F)(F)F)cc(-c2ccccc2)nc1SCc1nc(N)nc(N2CCOCC2)n1 | > 40.3 µM |  |
| CCCCn1c(NC(C)=O)c(C#N)c2nc3ccccc3nc21 | > 40.3 µM |  |

| Compound | Ki | IC50 |
| --- | --- | --- |
| COc1ccc(/C(O)=C2/C(=O)C(=O)N(c3nc(C)c(C)s3)C2c2ccco2)cc1 (stereo not given) | > 40.3 µM | > 66.7 µM (inactive) |
| Cc1cccc(C2CC(c3ccc(Cl)cc3)Nc3nc(N)nn32)c1 (stereo not given) | > 40.3 µM |  |
| Nc1ccc(Nc2ccccc2N)cc1 | 9.1 µM |  |
| CC1CCN(S(=O)(=O)c2ccc3c(c2)oc(=O)n3CC(=O)NCc2ccc3c(c2)OCO3)CC1 | > 40.3 µM |  |
| CCOc1cc(C2C(C(=O)c3ccc(C)o3)=C(O)C(=O)N2CCc2ccccc2)ccc1O (stereo not given) | > 40.3 µM | > 66.7 µM (inactive) |
| CCOc1ccc(/C(O)=C2/C(=O)C(=O)N(c3nc(C)c(C)s3)C2c2ccco2)cc1 (stereo not given) | > 40.3 µM | > 66.7 µM (inactive) |
| COc1cccc(-c2nc(CS(=O)(=O)CC(=O)NCCC(C)C)c(C)o2)c1 | > 40.3 µM |  |
| CC(C)OC(=O)c1nnn(-c2nonc2N)c1CN1CCc2ccccc2C1 | > 40.3 µM |  |
| O=S(=O)(Nc1cccc2ncccc12)c1cccs1 | > 40.3 µM |  |
| COCCCN1C(=O)C(=O)/C(=C(/O)c2ccc3c(c2)CC(C)O3)C1c1cccnc1 (stereo not given) | > 40.3 µM | > 66.7 µM (inactive) |
| O=C(NC1CCCCC1)c1sc(=S)n2c1[nH]c(=O)c1ccccc12 | > 40.3 µM |  |
| COc1ccc(Cl)cc1-n1c(=S)sc2c(=O)[nH]c(SCC(=O)NCC3CCCO3)nc21 (stereo not given) | > 40.3 µM |  |
| CCCC(=O)Nc1cc(-c2cn3cccnc3n2)ccc1OC | 13.8 µM |  |
| CCOC(=O)c1sc(=S)n2c1[nH]c(=O)c1ccc(C(=O)OC)cc12 | > 40.3 µM |  |
| Cc1[nH]n2c(=O)cc(-c3ccc([N+](=O)[O-])cc3)nc2c1-c1ccccc1 | 19.1 µM |  |
| CCOc1cc(C(=O)NCc2nnc(SCC(=O)OC)n2C)cc(OCC)c1OCC | 11.2 µM |  |
| COc1ccccc1C1/C(=C(/O)c2ccccc2)C(=O)C(=O)N1CC(C)C (stereo not given) | > 40.3 µM | > 66.7 µM (inactive) |
| Cc1c(C)c2cc(Cl)c(O)c(CN3CCCCC3)c2oc1=O | > 40.3 µM |  |
| O=C(NCCCN1CCN(c2ccc(F)cc2)CC1)c1cccc(N2CCCC2=O)c1 | > 40.3 µM |  |
| Cc1ccc(C(=O)C2=C(O)C(=O)N(CCCn3ccnc3)C2c2ccc(OC(C)C)cc2)o1 (stereo not given) | > 40.3 µM | > 66.7 µM (inactive) |
| Cc1nnc(SCc2cnc(-c3ccccc3)o2)[nH]c1=O | > 40.3 µM |  |
